Test results reported in patent US20140249293A1, “Absent and Rare Peptides and Therapeutic Uses Thereof” (Boise State University, priority 2012, published 2014).
Where two headings read alike, the source gives them in different places. Ends that are not written are not given here.

Columns and labels:
[1] = tested on: Normal (non-cancer) human lung fibroblast cells (WI-38); assay: MTT assay of WI-38 cells; format: cell-based; conditions: WI-38 normal fibroblasts, treated 1 hour, MTT 4 hours
Protocol: Normal (non-cancer) human lung fibroblast cells (WI-38) were also treated with the 9R, 9S1, and 120 peptides. WI-38 cells were treated with the peptides for 1 hour and followed by MTT for 4 hours. Although the treated cells show no decrease in MTT absorbance, this may have been due to the cells being plated at lower concentration, and may not have been actively dividing.

[2] = tested on: paclitaxel-resistant LnCap cells; assay: MTT assay of paclitaxel-resistant LnCap cells (reversal of paclitaxel resistance); format: cell-based; conditions: paclitaxel alone, even at 600 μM (data not shown)
Protocol: The 9R peptide (SEQ ID NO: 200; labeled “9” in FIG. 16) was tested for its ability to reverse paclitaxel (TAXOL™) resistance in paclitaxel-resistant LnCap cells.
Paclitaxel-resistant LnCaP cells were treated with the peptides for 120 hours, and incubated with MTT for 4 hours. The paclitaxel-resistant LnCap cells were resistant to paclitaxel even at 600 μM concentration (data not shown). Referring to FIG. 16, the paclitaxel-resistant LnCap cells were resistant to 9R at the 100 μM level (labeled **). However, the combination of paclitaxel (at little as 30 nM) and 9R (at little as 5 μM) killed the paclitaxel-resistant LnCap cells (labeled ***).

[3] = tested on: LnCaP cells; conditions: for IC50: 48 h
Protocol: LnCaP cells were treated with peptides 9R, 9S1, 120 (SEQ ID NO: 120) and a vehicle control. LnCaP cells were treated with the peptides for 48 hours, and incubated with MTT for 4 hours. For background level of absorbance, media alone was measured on the plate. […] Several concentrations of peptides were used to determine the IC50 of these peptides.
These cells were treated with an identical concentration (30 μM) of peptoprime peptide 120.

[4] = tested on: LnCaP cells; format: cell-based; conditions: 24 h
From the text: The HCS MITOCHONDRIAL HEALTH KIT™ (available from Invitrogen) includes a dye that is taken up by healthy, actively respiring mitochondria. The uptake of this dye can be visualized with fluorescent confocal microscopy. FIGS. 9A-9C show control LnCaP cells treated only with the vehicle control (i.e., no peptide). The Hoechst dye stained nuclei of cells, whether they were alive or dead (Excitation/Emission maxima—Hoechst 33342: 350/461 nm). FIG. 9A is a panel showing all nuclei stained with Hoechst dye. FIG. 9B is a panel showing healthy mitochondria stained with MitoHealth dye. FIG. 9C is a panel showing the merged images of 9A and 9B. The mitochondrial health dye incorporated into the cells depends on mitochondrial membrane potential (excitation/emission maxima—MitoHealth stain: 550/580 nm). The HCS MITOCHONDRIAL HEALTH KIT™ (Invitrogen) was developed for simultaneous quantitative measurements of two cell health parameters in the same cell: mitotoxicity and cytotoxicity. The MitoHealth stain accumulated in mitochondria in live cells proportional to the mitochondrial membrane potential.
A range of peptide concentrations was applied to the LnCap cells. […] The cells were treated for 24 hrs.
A range of peptide concentrations was used to treat LnCap cells. […] The cells were incubated with peptide for 24 hrs.

[5] = tested on: mice; conditions: cited from earlier work

Compound	MTT absorbance [1]	IC50 [3]	IC50 [4]	other results
WFMHW [Peptide 120, WFMHW]	no effect	–	–	–
CC(=O)O[C@H]1C(=O)[C@@]2(C)[C@H]([C@H](OC(=O)c3ccccc3)[C@]3(O)C[C@H](OC(=O)[C@H](O)[C@@H](NC(=O)c4ccccc4)c4ccccc4)C(C)=C1C3(C)C)[C@]1(OC(C)=O)CO[C@@H]1C[C@@H]2O [paclitaxel]	–	–	–	sensitivity of paclitaxel-resistant LnCap cells (MTT) [2]: resistant
OO [peroxide, Hydrogen peroxide, reference compound]	–	–	–	MTT absorbance value compared with control treatment cells ([3]; LnCaP, treated 48 hours, MTT 4 hours): marked decrease
WCMNW [Peptide 9S1, WCMNW]	no decrease	~30 µM	30 µM	–
RRRRRNWMWC [Peptide 9R, RRRRRNWMWC]	no decrease	~50 µM	100 µM	–
AQGV	–	–	–	recuperation after lethal exposure to radiation [5]: shown promise in accelerating the recuperation
